Experimental data: EP1094724B1, “USE OF A PHENOL OXIDISING ENZYME IN THE TREATMENT OF TOBACCO” (priority 1998, dated 2000)

Tested on: Myceliopthora thermophila laccase (MtL)
Test: MtL treatment of tobacco extract, quantitative HPLC of chlorogenic acid, rutin and scopoletin
Type: biochemical
Details: detection limit CA 2.43, R 1.55, S 0.50 µg/ml
Experimental: The content of phenolic compounds is analysed by HPLC according to the procedure described below: • Liquid chromatographic system: E.g. Shimadzu SCL-6B System Controller, and two LC-6A Liquid Chromatograph (pumps) or Waters model 600 E • Injector: Shimadzu SIL 6B Autoinjector or Waters 715 Ultra Wisp. UV detector: Shimadzu SPD-6A Photodiode Array UV-VIS detector or Waters Model 481 • Software: CLASS LC10 / CLASS-MXA or Maxima 820 • Column: Supelcosil™ LC-18 25 cm x 4.6 mm (Supelco, #5-8298) or µ Bondapack C198 stainless steel column, 30 cm x 4 mm i.d., 10 µm particle size. • Guard column: none or Guard-Pak from Waters packed with the same material. • Temperature: Ambient • Mobile phase flow: 1.3 ml/min • Injection volume: 20µl • Wavelength: 350 nm • Eluent: Binary gradient (linear) mixture of A: KH2PO4 (28.4 g in 2000 ml de-mineralised water) and B: methanol (please see table 1 and figure 1). The eluent is filtered through a 0.45 µm filter and degassed before use.
Prior to HPLC analysis, the samples were filtered through a 0.45 µm filter or smaller, e.g. a sterile Sartorius Minisart 0.45 µm filter (#16555) or a Millipore Millex-GS 0.22 µm (#SBGS 0 25 SB) to remove the haze/precipitate normally formed during enzyme treatment. Normally, no dilution of the extract/sample was made before HPLC analysis.
For quantitative measurements the following standards were made in the extracting solution: Chlorogenic acid: 20 mg/ml; Scopoletin: 1 mg/ml; Rutin: 0.75 mg/ml.
The mixture was intensely aerated during the reaction time.
"Raw tobacco" was extracted according to the procedure described in Example 8. […] After enzyme treatment, bentonite was added at a concentration of 1 g/L at the temperature of the extract after the laccase treatment (50°C) for 10 minutes. The slurry was clarified at a flow rate of 1 L/min using a continuous centrifuge. The enzyme treated and clarified extract was then concentrated 40 fold by means of reverse osmosis and evaporation. The concentrate was then recombined with the "tobacco residue" by spraying back the extract onto the tobacco residue, and finally dried, resulting in "recombined tobacco material".
Samples of tobacco before and after extraction and recombination with the tobacco extract was analysed for nicotine, reducing sugars, total sugars by means of an Auto Analyzer according to the method previously described, and analysed for chlorogenic acid, rutin, and scopoletin by means of HPLC according the method previously described. The tobacco extract before and after MtL and bentonite treatment was analysed for chlorogenic acid, rutin, and scopoletin by means of HPLC according the method previously described.

[1] = 5 min, 52.0 °C, 4.1 µg/ml MtL, 3.0 kg/100 litre scale
[2] = 5 minutes, 56.2 °C, MtL, 6.0 kg/200 litre scale
[3] = 10 min, 50.3 °C, 4.1 µg/ml MtL, 3.0 kg/100 litre scale
[4] = 10 minutes, 55.8 °C, MtL, 6.0 kg/200 litre scale
[5] = 15 min, 48.8 °C, 4.1 µg/ml MtL, 3.0 kg/100 litre scale
[6] = 15 minutes, 55.2 °C, MtL, 6.0 kg/200 litre scale
[7] = 20 min, 47.4 °C, 4.1 µg/ml MtL, 3.0 kg/100 litre scale
[8] = 20 minutes, 54.5 °C, MtL, 6.0 kg/200 litre scale
[9] = 30 min, 45.0 °C, 4.1 µg/ml MtL, 3.0 kg/100 litre scale
[10] = 30 minutes, 53.5 °C, MtL, 6.0 kg/200 litre scale
[11] = 45 min, 41.9 °C, 4.1 µg/ml MtL, 3.0 kg/100 litre scale
[12] = 45 minutes, 52.2 °C, MtL, 6.0 kg/200 litre scale
[13] = 60 min, 39.1 °C, 4.1 µg/ml MtL, 3.0 kg/100 litre scale
[14] = 60 minutes, 51.0 °C, MtL, 6.0 kg/200 litre scale
[15] = Extract after MtL treatment, 4.1 µg/ml MtL, 20 minutes at 55°C, intense aeration
[16] = Extract after MtL- and bentonite treatment and separation by centrifugation, 4.1 µg/ml MtL 20 minutes at 55°C, bentonite 1 g/L 10 minutes at 50°C

O=C(C=Cc1ccc(O)c(O)c1)OC1CC(O)(C(=O)O)CC(O)C1O (centres unmarked) [CA, 3-[[3-(3,4-Dihydroxyphenyl)-1-oxo-2-propenyl]oxy]1,4,5-trihydroxycyclohexanecarboxylic acid]
Content in tobacco extract during MtL treatment [1]: 0.036 mg/mL
Content in tobacco extract during MtL treatment [2]: 0.0166 mg/mL
Content in tobacco extract during MtL treatment [3]: BDL
Content in tobacco extract during MtL treatment [4]: 0.0138 mg/mL
Content in tobacco extract during MtL treatment [5]: BDL
Content in tobacco extract during MtL treatment [6]: BDL
Content in tobacco extract during MtL treatment [7]: BDL
Content in tobacco extract during MtL treatment [8]: BDL
Content in tobacco extract during MtL treatment [9]: BDL
Content in tobacco extract during MtL treatment [10]: BDL
Content in tobacco extract during MtL treatment [11]: BDL
Content in tobacco extract during MtL treatment [12]: BDL
Content in tobacco extract during MtL treatment [13]: BDL
Content in tobacco extract during MtL treatment [14]: BDL
phenolic compound content of tobacco extract [15]: BDL
phenolic compound content of tobacco extract [16]: BDL

COc1cc2ccc(=O)oc2cc1O [S, 7-Hydroxy-6-methoxy-2H-1-benzopyran-2-one]
Content in tobacco extract during MtL treatment [1]: 0.0063 mg/mL
Content in tobacco extract during MtL treatment [2]: 0.0101 mg/mL
Content in tobacco extract during MtL treatment [3]: 0.0027 mg/mL
Content in tobacco extract during MtL treatment [4]: 0.0090 mg/mL
Content in tobacco extract during MtL treatment [5]: 0.0014 mg/mL
Content in tobacco extract during MtL treatment [6]: 0.0078 mg/mL
Content in tobacco extract during MtL treatment [7]: 0.0010 mg/mL
Content in tobacco extract during MtL treatment [8]: 0.0054 mg/mL
Content in tobacco extract during MtL treatment [9]: 0.0010 mg/mL
Content in tobacco extract during MtL treatment [10]: 0.0043 mg/mL
Content in tobacco extract during MtL treatment [11]: 0.0010 mg/mL
Content in tobacco extract during MtL treatment [12]: 0.0020 mg/mL
Content in tobacco extract during MtL treatment [13]: 0.0010 mg/mL
Content in tobacco extract during MtL treatment [14]: 0.0019 mg/mL
phenolic compound content of tobacco extract [15]: 0.0047 mg/mL
phenolic compound content of tobacco extract [16]: 0.0017 mg/mL
